Data reported in patent publication US3951949A, “Sulfates of hydroxyethyl starch” (Ajinomoto Co., Inc., priority 1973, dated 1976).

Columns and labels:
bovine serum albumin = bovine serum albumin (Bos taurus, UniProt P02769); assay: Inhibition of heat denaturation of serum protein (turbidity); settings: 0.5 (W/V) % bovine serum albumin, test substance 3 × 10^-3 M per repeating unit, 1/15M phosphate buffer PH=5.4, 67°C 3 minutes
Protocol: Inhibition of heat denaturation of serum proteins is widely used for screening potential pharmaceutical agents for anti-inflammatory activity. The test is described in "Inhibition of Heat Denaturation of Serum Protein," Y. Mizushima, Arch. Int. Pharmacodyn.
In the test, the sodium salt of hydroxyethyl starch sulfate was dissolved in 1/15M phosphate suffer solution (PH=5.4) and to the solution the same phosphate buffer solution containing 1% bovine serum albumin was added in a 1:1 volume ratio. The solution was stirred at 25°C for 20 minutes and then stirred at 67°C for 3 minutes and cooled. The turbidity of the test solutions thus obtained was compared with that of a solution obtained by adding 1/15M phosphate buffer solution containing 1% bovine serum albumin to 1/15M phosphate buffer solution in a 1:1 volume ratio, and the inhibition degree of heat denaturation were calculated.

pepsin = assay: Pepsin inhibition activity; format: biochemical; settings: 0.30% aqueous solution (PH=1.8) 1 ml; 20 μg pepsin 1 ml; 1.5% bovine hemoglobin 1 ml; 30°C, 10 min
Protocol: The pepsin inhibition activity of the products of the invention was tested. The anti-ulcer activity of the compounds of the invention is evident.
*0.30% Sulfate of hydroxyethyl starch aqueous solution (PH=1.8) 1 ml; 20
μ g pepsin aqueous solution (PH=1.8) 1 ml; 1.5% Bovine hemoglobin

hyaluronidase = assay: Hyaluronidase inhibition activity; format: biochemical; settings: 0.16% in phosphate buffer (PH=7.0) 0.25 ml; hyaluronic acid phosphate buffer (PH=5.3) 0.5 ml; bovine serum albumin buffer (PH=3.75) 5.0 ml; 38°C, 45 minutes
Protocol: Hyaluronidase inhibition activities of sulfate of hydroxyethyl starch were tested.
*0.16% Sulfate of hydroxyethyl starch phosphate buffer (PH=7.0) 0.25 ml;
hyaluronic acid phosphate buffer (PH=5.3) 0.5 ml; Bovine serum albumin
phosphate buffer (PH=3.75) 5.0 ml 38°C, 45 minutes.

Chain of bovine serum albumin (P02769 25-607): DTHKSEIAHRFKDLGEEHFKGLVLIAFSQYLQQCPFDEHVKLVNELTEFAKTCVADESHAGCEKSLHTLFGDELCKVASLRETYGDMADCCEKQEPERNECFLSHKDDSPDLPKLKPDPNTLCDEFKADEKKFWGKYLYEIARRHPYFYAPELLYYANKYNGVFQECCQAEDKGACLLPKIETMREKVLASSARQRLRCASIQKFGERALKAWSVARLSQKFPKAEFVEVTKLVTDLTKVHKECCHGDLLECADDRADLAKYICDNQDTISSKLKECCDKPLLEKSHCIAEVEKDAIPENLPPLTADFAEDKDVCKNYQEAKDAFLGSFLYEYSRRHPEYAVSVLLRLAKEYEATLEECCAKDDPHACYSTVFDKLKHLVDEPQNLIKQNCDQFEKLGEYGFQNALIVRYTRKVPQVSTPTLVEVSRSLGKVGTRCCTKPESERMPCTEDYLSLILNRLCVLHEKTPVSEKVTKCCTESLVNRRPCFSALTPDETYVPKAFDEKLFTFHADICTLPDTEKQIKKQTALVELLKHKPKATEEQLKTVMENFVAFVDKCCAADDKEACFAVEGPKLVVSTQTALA

Sodium Salt of Sulfate of Hydroxyethyl Starch [Example 8.2]
Inhibition Ratios of Heat Denaturation of Bovine Serum Albumin (bovine serum albumin; 3 min, 3000 µM): 98.1%

sodium salts of sulfate of hydroxyethyl starch [Ex. 6]
Inhibition Ratios of Heat Denaturation of Bovine Serum Albumin (bovine serum albumin): 93.4%
Pepsin Inhibition Ratio (pepsin): 83%
Inhibition Ratio (hyaluronidase) (hyaluronidase): 96%

Sodium Salt of Sulfate of Hydroxyethyl Starch [Example 1.6]
Inhibition Ratios of Heat Denaturation of Bovine Serum Albumin (bovine serum albumin; 3 min, 3000 µM): 97.9%

Sodium Salt of Sulfate of Hydroxyethyl Starch [Example 11.1]
Inhibition Ratios of Heat Denaturation of Bovine Serum Albumin (bovine serum albumin; 3 min, 3000 µM): 97.6%

Hydroxyethyl Starch [reference compound]
Pepsin Inhibition Ratio (pepsin): 1%
Inhibition Ratio (hyaluronidase) (hyaluronidase): 10%

Sodium Salt of Sulfate of Hydroxyethyl Starch [Example 14.5]
Inhibition Ratios of Heat Denaturation of Bovine Serum Albumin (bovine serum albumin; 3 min, 3000 µM): 98.8%

Sodium Salt of Sulfate of Hydroxyethyl Starch [Example 6.3]
Inhibition Ratios of Heat Denaturation of Bovine Serum Albumin (bovine serum albumin; 3 min, 3000 µM): 98.1%
